For series [1], the target named is T1, CRTH2 (Homo sapiens, UniProt Q9Y5Y4).
T1 sequence (Q9Y5Y4 1-395): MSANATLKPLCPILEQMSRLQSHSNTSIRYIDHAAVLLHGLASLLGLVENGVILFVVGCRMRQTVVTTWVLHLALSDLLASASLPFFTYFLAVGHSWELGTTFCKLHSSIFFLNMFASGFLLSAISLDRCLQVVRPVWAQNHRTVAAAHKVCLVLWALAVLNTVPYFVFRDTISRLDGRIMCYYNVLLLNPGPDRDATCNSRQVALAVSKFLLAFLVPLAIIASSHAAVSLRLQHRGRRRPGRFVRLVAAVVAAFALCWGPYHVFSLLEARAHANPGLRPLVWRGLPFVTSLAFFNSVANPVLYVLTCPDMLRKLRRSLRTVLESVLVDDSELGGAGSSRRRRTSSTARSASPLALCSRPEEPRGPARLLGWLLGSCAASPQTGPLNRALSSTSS
Briefly: Radioligand binding Scintillation Proximity Assay ([3H]PGD2, hCRTH2-CHO cell membranes). Details: host or cells: CHO cells. Here is the method:
Adherent CHO cells expressing hCRTH2 (Euroscreen, Belgium) were cultured in 225 cm2 cell culture flasks (Corning, USA) in 30 ml of medium. After two rinses of phosphate buffered saline (PBS), cells were harvested in 10 ml of PBS containing 1 mM EDTA, centrifuged at 500×g for 5 min at 4° C. and frozen at −80° C. The pellet was re-suspended in 50 mM Tris-HCl, pH 7.4, 2 mM EDTA, 250 mM Sucrose, containing protease inhibitor cocktail tablets, (Complete EDTA-free, Roche, Germany) and incubated 30 min at 4° C. Cells were disrupted by nitrogen cavitation (Parr Instruments, USA) at 4° C. (800 p.s.i. for 30 min), and centrifuged at 500×g for 10 min at 4° C. Pellet containing nuclei and cellular debris was discarded and supernatant was centrifuged 60 min at 4° C. at 45000×g. Membrane pellet was re-suspended in storage buffer (10 mM HEPES/KOH pH 7.4, 1 mM EDTA, 250 mM sucrose, protease inhibitor cocktail tablets) using Dounce homogenization and frozen in liquid nitrogen, and stored at −80° C.
The inhibitory activity can be investigated by a radioligand binding Scintillation Proximity Assay (SPA) (Sawyer et al., Br. J. Pharmocol 2002, 137, 1163-72). The SPA radioligand binding assay was performed at room temperature in binding buffer (10 mM HEPES/KOH pH 7.4, 10 mM MnC12, with protease inhibitor cocktail tablets), containing 1.5 nM [3H]PGD2 (Perkin Elmer), 10-50 μg/ml of hCRTH2—CHO cell membrane protein and 2 mg/ml of Wheat-germ agglutinin Scintillation Proximity Assay beads (RPNQ0001, GE-Healthcare) in a final volume of 100 μl in 96 well plates (Corning, USA). Non-specific binding was determined in the presence of 10 μM PGD2 (Cayman, USA). Competing Compounds of Formula (I) were diluted in dimethylsulphoxide so that the total volume of dimethylsulfoxide was kept constant at 1% dimethylsulphoxide (Me2SO). Serial dilutions of 100 μM to 100 pM were prepared and 10 μl each of the compounds of Formula (I) stock solutions were added to the binding assay reagents and incubated for 90 min with agitation at room temperature. Binding activity was determined by using a 1450 Micro-beta scintillation counter (Wallac, UK).
On the technique in general: Scintillation proximity formats need no separation of bound from free tracer.

Series [2] concerns the target T1, CRTH2. Briefly: PGD2-induced eosinophil cell shape assay in human whole blood. Type of series: cell-based. Details: endogenous in cells; host or cells: eosinophils in human whole blood from healthy volunteers. Conditions: 10 nM PGD2. Here is the method:
The test compounds were diluted in dimethylsulphoxide so that the total volume of dimethylsulfoxide was kept constant at 2% dimethylsulphoxide (Me2SO). Serial dilutions of 200 μM to 0.09 μM were prepared. Samples of 90 μl of human blood from healthy volunteers (Centre de Transfusion Sanguine de Genève) were pre-incubated in polypropylene Falcon tubes (BD 352063) for 20 minutes in a water bath at 37° C. with 10 μl of diluted compounds. For CRTH2 activation, 100 μl PGD2 (Cayman 12010) at 20 nM was added (10 nM final) to each tube and cells were maintained at 37° C. For negative control cells were treated with PBS. After 10 minutes, cell activation was stopped with 120 μl Formaldehyde 10% (4% final, Fluka 41650) and cells were rested for 10 minutes at room temperature. Fixed cells were transferred into polypropylene tubes and then treated for 1 hour in a water bath at 37° C. with 2 ml of Triton—Surfact-Amps X-100 (Pierce 28314) at 0.166% (0.13% Triton final). After several washes with PBS (red cells lysed progressively during washes, two washes are necessary), cells were analyzed by flow cytometry on a FACSCalibur.

Series [3] in a line: In vivo pharmacokinetic evaluation in mouse. Details: species or system C57BL/6 female mice. Conditions: for Cmax: female, C57BL/6, mouse, plasma, po, 5 mg/Kg; for Cmax / Fz in mice: mice; for Fz in mice: oral bioavailability, 5 mg/kg po, 1 mg/kg i.v. Here is the method:
(§1) In order to study the pharmacokinetic (PK) profile of test compounds in vivo, Sprague Dawley male rats or C57BL/6 female mice were dosed intravenously or after oral gavage. For both species, test compounds were dosed in solution at 1 mg/kg for i.v. route (10% ethanol, 10% N,N-dimethylacetamide, 30% propylene glycol, 50% water, v/v) and in suspension at 5 mg/kg (0.5% carboxymethylcellulose suspension, containing 0.25% Tween 20 in water) for oral gavage. PK profile in rat was obtained from 3 animals per dosing route and mouse PK profile was determined from 3 animals for each time points. The volume of administration was 2 mL/kg for i.v. dosing in both species and either 5 mL/kg (rat) or 10 mL/kg (mouse) for oral gavage. Blood samples (100 µL/time point) were collected at 0.083 (5 min), 0.25, 0.5, 1, 4, 7 and 24 hours post-dose for i.v. dosing, and at 0.5, 1, 4, 7 and 24 h for oral dosing, into heparin-Li+ containing tubes. For rats, all blood samples were collected trough a catheter in the carotid artery (placed in the artery the day before the experiment), under light isoflurane anesthesia, and stored on ice until centrifugation and plasma isolation. For mouse, blood samples were collected from intracardiac puncture at sacrifice at each time point and processed as described above for the rat. Plasma samples were stored frozen until analysis (−20° C. to −70° C.). For bioanalysis, samples were processed by protein precipitation (acetonitrile, formic acid 0.1%, addition of 3 volumes) after addition of one internal standard and analysed using a sensitive and selective LC/MS/MS method. An aliquot of the resulting supernatant was subject to LC/MS/MS analysis using a reverse phase column (Waters Xterra, C8, (3.5 μm particle size, 2.1×50 mm) and a short gradient (1 min) from (Solvent A) 85% water, 15% acetonitrile and 0.1% formic acid to (Solvent B) 90% acetonitrile, 10% water and 0.1% formic acid followed by isocratic conditions of Solvent B for 3.5 min at 0.4 mL/min. Column effluent was monitored using a Sciex API 4000 triple quadrupole mass spectrometer with a Turbo V electrospray ion source. Unknown concentrations of test compounds were determined using a calibration curve ranging from 1 to 3000 ng/mL.

A short description of series [4]: In vivo pharmacokinetic evaluation in rat. Conditions: for Cmax: male, Sprague Dawley, plasma, po, 5 mg/Kg; for Cmax / Fz in rats: rats; for Fz in rats: oral bioavailability, 5 mg/kg po, 1 mg/kg i.v. Details: species or system Sprague Dawley male rats. As for the experimental part: as §1
Series [5] has as its system OVA-induced eosinophil recruitment in lung. Briefly: OVA-induced lung eosinophilia in mice. The settings on record: oral route, dose of 30 mg/Kg. Type of series: in vivo, BALB/c mice. Here is the method:
BALB/c mice (6-8 weeks old) were immunized with ovalbumin (10 μg i.p) on day 0 and 7. In order to elicit a local inflammatory response in the lung, mice were challenged between day's 15-17 with a nebulised solution of ovalbumin (10 μg/ml; De Vilibiss Ultraneb 2000, once daily for 30 min during the 3 days). On each separate day between 15 and 17 each animal received via oral gavage the test compound, at t−1 h and t+7 h with respect to OVA exposure at t=0 h. Eight hours after the final OVA challenge, bronchoalveolar lavage (BAL) was then carried out. Total cell numbers in the BAL fluid samples were measured using a haemocytometer. Cytospin smears of the BAL fluid samples were prepared by centrifugation at 1200 rpm for 2 min at room temperature and stained using a DiffQuik stain system (Dade Behring) for differential cell counts.

[6] abbreviates: comparison table with (+)-Enantiomer, read-out: Binding IC50.

As for `O=C(O)CN1C(=O)C2(NC(=O)N(Cc3cc(Cl)ccc3F)C2=O)c2cc(Cl)ccc21` (single isomer, unassigned; (+)) [(+)-Enantiomer, (+)-[5′-Chloro-1-(5-chloro-2-fluorobenzyl)-2,2′,5-trioxospiro[imidazolidine-4,3′-indol]-1′(2′H)-yl]acetic acid, reference compound], the IC50 in series [1] (setting [6]) came to 21 nM; in series [2], 50 nM. For the same compound, the “activity on DP2” value in series [1] (first eluting enantiomer compared with second eluting enantiomer) was “better activity”. The Cmax was 113 ng/mL in series [3] and 151 ng/mL in series [4] (rat). In series [3], this compound gave a Fz in mice of 6%. Besides, in series [4], the Fz in rats was 5.3%.
As for `CN1C(=O)N(Cc2cc(Cl)ccc2F)C(=O)C12C(=O)N(CC(=O)O)c1ccc(Cl)cc12` (single isomer, unassigned; (+)) [Example 2, (+)-[5′-chloro-1-(5-chloro-2-fluorobenzyl)-3-methyl-2,2′,5-trioxospiro[imidazolidine-4,3′-indol]-1′(2′H)-yl]acetic acid], the IC50 was 45 nM in series [1] (1.5 nM [3H]PGD2, hCRTH2-CHO membranes, SPA, read-out: IC50 binding); 68 nM in series [1] (setting [6]); 150 nM in series [2]. In addition, the “inhibition of OVA-induced eosinophil recruitment in lung” value in series [5] stood at 79%. Besides, the Cmax in series [3] was 691 ng/mL; in series [4] (rat) it was 489 ng/mL. For the same compound, the “oral bioavailability in mouse” value in series [3] (mouse, in words) is on record as “significant improvement”. The Fz in mice in series [3] worked out at 39%. In addition, in series [4], the Fz in rats was 37%. Besides, in series [4] (rat, in words), the “oral bioavailability in rat” value is “significant improvement”.

As usually defined, the IC50 is the concentration needed to halve the response being measured. One may read the Cmax as the maximum level reached in the sampled fluid or tissue.

Source of the values: patent US20120115895A1, “TRICYCLIC INDOLE-DERIVED SPIRO DERIVATIVES AS CRTH2 MODULATORS” (Merck Serono S.A., priority 2009, published 2012).
